Laboratory results taken from patent US20130331427A1, “METHODS OF STIMULATING CELLULAR GROWTH, SYNAPTIC, REMODELING AND CONSOLIDATION OF LONG-TERM MEMORY” (Blanchette Rockefeller Neuroscience Institute, priority 2007, published 2013).

Tests used:
sAPP secretion = sAPP secretion with bryostatin-1; format: cell-based; conditions: 0.1 nM
Source text: Of particular interest are macrocyclic lactones (i.e. bryostatin class and neristatin class) that act to stimulate PKC. […] Bryostatin is currently in clinical trials as an anti-cancer agent. The bryostatins are known to bind to the regulatory domain of PKC and to activate the enzyme. […] (See, for example, WO 97/43268; incorporated herein by reference in its entirety).

calexcitin = calexcitin immunostaining in Hermissenda B-photoreceptors; format: in vivo
Description: Following experimental treatments and testing, animals were rapidly decapitated, the central nervous systems (CNS) removed and then fixed in 4% para-formaldehyde in 20 mM Tris-buffered (pH 8) natural seawater (NSW; 0.2 μm micropore-filtered). The CNSs were then embedded in polyester wax (20), sectioned (6 μm) and immunostained using a biotinylated secondary antibody coupled to avidin-bound microperoxidase (ABC method, Vector), Aminoethylcarbazole (AEC) was used as the chromogen. The primary polyclonal antibody (designated 25U2) was raised in rabbits from the full length calexcitin protein extracted from squid optic lobes. Gray-scale intensity measures were done from digital photomicrographs on circumscribed cytoplasmic areas of the B-photoreceptors minus the same background area (non-staining neuropile).
Micrographs (A, B) depict representative tissue sections from Hermissenda eyes that were immunolabeled with the calexcitin polyclonal antibody, 25U2. […] Differences in staining intensities were measured and recorded as gray-scale intensities (0-256; B-cell cytoplasm minus tissue background).

[1] = cited from earlier work
Rat IGF-IR cells = assay: overall protein synthesis, [35S]methionine incorporation; conditions: single 30-minute exposure to 0.28 nM
Description: [^35S]Methionine (9.1 μCi) was then added to the medium followed by analysis of radiolabel.

CCC/C=C/C=C/C(=O)O[C@H]1/C(=C/C(=O)OC)C[C@H]2C[C@H]([C@@H](C)O)OC(=O)C[C@H](O)C[C@@H]3C[C@H](OC(C)=O)C(C)(C)[C@](O)(C[C@@H]4C/C(=C/C(=O)OC)C[C@H](/C=C/C(C)(C)[C@]1(O)O2)O4)O3 [bryostatin, bryostatin-1]
sAPP secretion (sAPP secretion): dramatic increase of sAPP secretion | CE immunostaining (calexcitin; bryostatin alone, 24 hours after 1 exposure for four hours): not elevated | CE immunostaining (calexcitin; bryostatin alone, 24 hours after 2 exposures on two successive days): greater residual CE immunostaining | CE immunostaining (calexcitin; bryostatin plus 6 TE): comparable to that observed after 9 TE | increase of calexcitin levels (calexcitin; paired training (6PTE), bryostatin 0.25): greater than 4.3 × | rise in CE (calexcitin) (calexcitin; random training (4RTE), bryostatin 0.25): 2.0 | calexcitin level (calexcitin; two exposures on successive days 0.25 ng/ml, 2-paired TEs, vs 9-random TEs): significantly increased | tolerability ([1]; 20 μg/m^2 once per week for 3 weeks): well tolerated | maximum-tolerated dose ([1]; 1 hour i.v. infusion once every 2 weeks for 6 weeks): 50 μg/m^2 | maximum tolerated dose ([1]; once per week for 8 weeks): 25 μg/m^2 | myalgia reported, share of all treated patients ([1]; phase II clinical trials): 10 to 87% | increase of overall protein synthesis (Rat IGF-IR cells; by 79 hours): 60% | increase of overall protein synthesis (Rat IGF-IR cells; within 24 h): 20%
